Experimental data taken from patent US20230287416A1, “COMBINATORY TREATMENT OF SMA WITH SARNA AND MRNA MODULATORS” (RACTIGEN THERAPEUTICS, priority 2020, published 2023).

Assays:
Format in all cases: cell-based, human
[1] = system: SMN2 mRNA; test: Semi-quantitative RT-PCR (DdeI digestion) of SMN2FL and SMN2 Δ7 in GM03813 cells; details: GM03813, 72 h
Description: Seventy-two hours later, total cellular RNA was isolated from the treated cells and reverse transcribed into cDNA. SMN2 mRNA expression was assessed with RT-qPCR using primer pairs specific for SMN2FL or SMN2 Δ7. SMN2 mRNA expression was also assessed by semi-quantitative RT-PCR using a primer pair that amplifies both SMN2FL and SMN2 Δ7 followed by DdeI digestion (PCR/digestion). […] After digestion, both bands were reduced by 115 bp, resulting in two products: 392 bp (SMN2FL) and 338 bp (SMN2 Δ7) as shown on the gel of FIG. 3D. FIG. 3A-3D show dose-dependent changes in SMN2FL and SMNΔ7 mRNA as assessed by RT-qPCR and PCR/digestion respectively. FIG. 3E-3G are graphic plots of data from quantitating the intensity of bands in FIG. 3D.
(§1) SMA patient derived fibroblasts were obtained from Coriell Institute (Camden, N.J., USA), including GM00232 (SMA type I with 2 copies of SMN2 gene) and GM03813 (SMA type II with 3 copies of SMN2 gene). These cells were cultured at 5% C02 and 37° C. in modified MEM medium (Gibco, Thermo Fisher Scientific, Carlsbad, Calif.) supplemented with 15% bovine calf serum (Sigma-Aldrich), 1% NEAA (Gibco) and 1% penicillin/streptomycin (Gibco). To transfect oligonucleotides including saRNAs, siRNA and ASO, cells were seeded into 6-well plates at a density of 1×10^5 cells/well and were transfected with oligonucleotides at different concentrations using RNAiMax (Invitrogen, Carlsbad, Calif.) according to the reverse transfection protocol provided by the manufacturer for 72 hours (unless otherwise specified). For Risdiplam treatment of cells, Risdiplam (HY-109101, MedChem Express Company, Monmouth Junction, N.J., USA) dissolved in DMSO was added directly to cells at desired concentration for 72 hours unless specified otherwise.
To amplify both SMN2FL and SMN2 Δ7 in one reaction, cDNA was amplified by semi-quantitative RT-PCR using primers that spans exon 7 of SMN2 (Table 5) (FIG. 2). The PCR reaction conditions were: 94° C. for 2 minutes (1 cycle), 98° C. for 10 seconds, 60° C. for 15 seconds, 72° C. for 32 seconds, cycled for 30 time with a final 5 minutes extension at 72° C. To further differentiate SMN1 mRNA from SMN2, the resultant PCR products of SMN were digested by DdeI restriction enzyme (R0175L, NEB) and then separated by 2% agarose gel. Due to a nucleotide variant on […] of SMN2, a DdeI recognition site exists in PCR products amplified from SMN2 gene but not from SMN1 gene, DdeI digestion releases a 115 bp fragment from both SMN2FL and SMN2 Δ7, resulting […]: 507 (SMN1FL), 338 (SMN2 Δ7), 392 (SMN2FL) and 115 bp (FIG. 2). TBP gene was also amplified as a RNA loading control. The DdeI digestion reaction conditions were: 37° C. for 60 minutes and 65° C. for 20 minutes, 1cycle.

[2] = system: SMN2 mRNA; test: Semi-quantitative RT-PCR/DdeI digestion of SMN2FL and SMN2 Δ7 in GM00232 cells; details: GM00232, 72 h
Description: (§2) To determine whether the combination of saRNA (DS06-0004) and ASO-10-27 has an enhanced effect on SMN2FL induction in type I SMA cells, GM00232 cells were transfected with DS06-0004 and ASO-10-27 alone or in combination at different concentrations for 72 hours. SMN2 expression was assessed in the treated cells by RT-qPCR (FIGS. 4A and 4D) and PCR/digestion (FIGS. 4B, 4C and 4E).
as §1, with “For Risdiplam treatment of cells, Risdiplam (HY-109101, MedChem Express Company, Monmouth Junction, N.J., USA) dissolved in DMSO was added directly to cells at desired concentration for 72 hours unless specified otherwise.” left out
To amplify both SMN2FL and SMN2 Δ7 in one reaction, cDNA was amplified by semi-quantitative RT-PCR using primers that spans exon 7 of SMN2 (Table 5) (FIG. 2). […]

[3] = system: SMN2 mRNA; test: RT-qPCR of SMN2FL and SMN2 Δ7 mRNA in GM00232 cells; details: GM00232, 72 h
Description: as §2
“GM00232 cells” refers to fibroblast cells provided by Coriell Institute for Medical Research. This cell line is described as SPINAL MUSCULAR ATROPHY I; SMA1. The donor subject has 2 copies of the SMN2 gene (data from several sources including Stabley et al. 2015, PMID 26247043) and is homozygous for deletion of exons 7 and 8 of the SMN1 gene. The relevant gene is SMN1; the chromosomal location is 5q12.2-q13.3, the allelic variant is described as exons 7 and 8 deleted; SPINAL MUSCULAR ATROPHY, TYPE I; and the identified mutation: is EX7-8DEL. The phenotype data derived from a fibroblast from skin (arm) of the following subject characterized as: Progressive muscular atrophy; absent deep tendon reflexes; abnormal EMG; donor subject has 2 copies of the SMN2 gene (data from several sources including Stabley et al. 2015, PMID 26247043) and is homozygous for deletion of exons 7 and 8 of the SMN1 gene.
as §1
For RNA isolation from cultured cells, total cellular RNA was isolated from treated cells using an RNeasy Plus Mini kit (Qiagen, Hilden, Germany) according to its manual. To isolated RNA from animal tissues, tissues were harvested and stored at RNA later (AM7021, Thermo Fisher). Total RNA was then isolated using MagPure Total RNA Micro LQ kit (Magen, R6621, China) by auto-pure96 machine (ALLSHENG, China). The resultant RNA (1 μg) was reverse transcribed into cDNA by using a PrimeScript RT kit containing gDNA Eraser (Takara, Shlga, Japan). The resultant cDNA was amplified in an ABI 7500 Fast Real-time PCR System (Applied Biosystems; Foster City, Calif.) using SYBR Premix Ex Taq 11 (Takara, Shlga, Japan) reagents and primers which specifically amplified full-length (SMN2FL) or A7 SMN2 mRNA (SMN2 Δ7) (FIG. 1). The reaction conditions were: 95° C. for 3 seconds (1 cycle) and 60° C. for 30 seconds (40 cycles). Amplification of TBP gene served as an internal control.

[4] = system: SMN2 mRNA; test: as above; details: GM00232, 72 h; remark: listed apart in the source
[5] = PCR/digestion (Example 1, FIG. 3E)

## Nusinersen [ASO-10-27]
[1]; 25 nM, semi-quantitative RT-PCR/DdeI digestion (Example 4, FIG. 6B-6C)
  SMN2FL mRNA fold change: 2.1 fold
[1]; [5]
  concentration at which expression of SMN2FL reached its peak: 10 nM
  concentration at which expression of SMNΔ7 almost approached the lowest value: 5 nM
[1]; alone or in combination at 10 nM, semi-quantitative RT-PCR (Example 10, FIG. 12B-12C)
  SMN2FL mRNA fold change: 1.4 fold
[2]; 25 nM, PCR/DdeI digestion (Example 2, FIG. 4B-4C)
  SMN2FL mRNA fold change: 2.3 fold
[3]; 1 nM (Example 2, FIG. 4A)
  SMN2FL mRNA fold change: 1.3 fold
[3]; 1 nM, 5 nM and 25 nM (Example 2)
  SMN2 Δ7 mRNA change: decrease
[3]; 5 nM (Example 2)
  SMN2FL mRNA fold change: 1.8 fold
[3]; 25 nM (Example 2)
  SMN2FL mRNA fold change: 1.9 fold

## Cc1cn2nc(-c3cc(=O)n4cc(N5CCNC6(CC6)C5)ccc4n3)cc(C)c2n1 [Risdiplam]
[1]; 1250 nM, PCR/DdeI digestion (Example 8, FIG. 10D-10F)
  SMN2FL mRNA fold change: 2.1 fold
[2]; 1250 nM, PCR/DdeI digestion (Example 6, FIG. 8D-8F)
  SMN2FL mRNA fold change: 2.3 fold
[4]; 50 nM (Example 6, FIG. 8A-8C)
  SMN2FL mRNA fold change: 1.2 fold
[4]; 50 nM, 250 nM and 1250 nM (Example 6)
  SMN2 Δ7 mRNA change: decrease
[4]; 250 nM (Example 6)
  SMN2FL mRNA fold change: 1.8 fold
[4]; 1250 nM (Example 6)
  SMN2FL mRNA fold change: 1.9 fold

## DS06-0004: saRNA targeting SMN2 promoter at -281; SEQ ID NO: 476/477 (Table 8: SEQ ID NO: 131/288) (chain 1 AGACGAGGCCUAAGCAACATT; chain 2 UGUUGCUUAGGCCUCGUCUTT; chemistry not given here)
[4]; 1 nM (Example 6)
  SMN2FL mRNA fold change: 1.8 fold
  SMN2 Δ7 mRNA fold change: 1.6 fold
[4]; 5 nM (Example 6)
  SMN2FL mRNA fold change: 2.1 fold
  SMN2 Δ7 mRNA fold change: 1.6 fold
[4]; 25 nM (Example 2)
  SMN2 Δ7 mRNA fold change: 2.1 fold
[4]; 25 nM (Example 6)
  SMN2FL mRNA fold change: 2.0 fold
  SMN2 Δ7 mRNA fold change: 1.7 fold
[3]; 1 nM (Example 2)
  SMN2 Δ7 mRNA fold change: 1.5 fold
[3]; 1 nM (Example 2, FIG. 4A)
  SMN2FL mRNA fold change: 1.7 fold
[3]; 5 nM (Example 2)
  SMN2FL mRNA fold change: 2.4 fold
  SMN2 Δ7 mRNA fold change: 1.9 fold
[3]; 25 nM (Example 2)
  SMN2FL mRNA fold change: 2.4 fold
